Data as given in article PMC10897151, “Nature-inspired peptide of MtDef4 C-terminus tail enables protein delivery in mammalian cells” (Scientific Reports, 2024).
Peptide text beside a SMILES is read from it.

Key:
HeLa cells [1] = assay: Confocal microscopy imaging of cellular penetration; type: cell-based
Experimental: To this end, we explored the internalization kinetics of FITC-GMA4C into the cells. At the outset, we performed a dose–response investigation using a twofold dilution, identifying optimal conditions at 6uM for peptide visualization (Figs. 2 and 3). Subsequently, HeLa cells were cultured with 6 µM FITC-GMA4C and imaged at different time points.
Figure 4 Time response of FITC-GMA4C uptake into HeLa cells. (A) Cells were cultured with 6 µM of FITC-GMA4C at 37 °C, followed by PBS washing and subsequent fixation with 4% PFA and post-fixation staining with DAPI. Images of cells were taken by confocal microscopy visualizing FITC-GMA4C (green) and DAPI (Blue). Scale bar: 100 µm. (B) Quantification of FITC-GMA4C fluorescence intensity. Bars show the mean green fluorescence intensity relative to non-treated cells and normalized to the number of cells. Values were measured using the Color Threshold tab in Fiji. […]
Given the remarkable rate and efficiency of the free peptide cellular penetration, we further investigated its capacity to enhance the delivery of large biomolecules into cells. For that purpose, we evaluated the cellular permeabilization of recombinant GFP, expressed and purified with an N- or C-terminus fusion of GMA4C: GFP, GMA4C-GFP and GFP-GMA4C, respectively (Fig. S1). […] Subsequently, we quantified the cellular uptake of the exogenous proteins using flow cytometry analysis. […]

HeLa cells [2] = assay: Flow cytometry analysis of cellular uptake; type: cell-based; settings: free FITC 25 µM, 2 h, trypsin treated
Experimental: To evaluate the capability of GMA4C to penetrate mammalian cells, we synthesized the peptide with a fluorescein isothiocyanate (FITC) fluorescent probe at its N-terminus (FITC-GMA4C). Subsequently, we incubated HeLa cells with varying concentrations of FITC-GMA4C for two hours. After thorough washing, we visualized the cells using confocal microscopy imaging. Remarkably, we observed the accumulation and intracellular localization of FITC-GMA4C within the cells, even at low micromolar concentrations (Figs. 3A,B, and S7A). The entry of FITC-GMA4C is depicted by green dots within the cells, indicating effective peptide transduction. […] To ensure that the detected fluorescence signal originated only from peptides internalized within the cells and not from peptides bound to the cell membrane, we washed the cells and subjected them to trypsin treatment at 37 °C. […]
Figure 3 Characterization of GMA4C penetration into HeLa cells by confocal imaging and flow cytometry analysis. […] (B) Quantification of FITC-GMA4C fluorescence intensity. Bars show the mean green fluorescence intensity relative to non-treated cells and normalized to the number of cells. Values were measured using the Color Threshold tab in Fiji. […] (C) Quantification of FITC-GMA4C peptide uptake by cells. […] (D) Quantitative evaluation of flow cytometry signal intensity. Values were measured using FloJo flow cytometry software. […]

Molecule	time at which significant uptake is observed (HeLa cells [1])	time to reach uptake equilibrium (HeLa cells [1])	accumulation in the cell (HeLa cells [2])
C[C@@H](O)[C@H](NC(=O)[C@H](CS)NC(=O)[C@H](Cc1ccccc1)NC(=O)[C@H](CS)NC(=O)[C@H](CCCNC(=N)N)NC(=O)[C@H](CCCNC(=N)N)NC(=O)[C@H](CCCNC(=N)N)NC(=O)[C@H](Cc1ccccc1)NC(=O)CNC(=O)[C@H](CCCNC(=N)N)NC(=O)[C@H](CS)NC(=O)[C@H](CCCNC(=N)N)NC(=O)CN)C(=O)N[C@H](C(=O)N[C@@H](Cc1c[nH]cn1)C(=O)N[C@@H](CS)C(=O)O)[C@@H](C)O [GMA4C] (H-GRCRGFRRRCFCTTHC-OH; N-terminus and C-terminus assumed)	under 15 min	≤ 30 min	–
fluorescein isothiocyanate [free-FITC]	–	–	only slightly accumulated
